In paper PMC7414126 (Scientific Reports, 2020):
Values joined by “and” are separate entries in the source; they are usually repeats but may differ in a detail not shown here. Equal entries are not always repeated.

Target: T1, NLuc-hH2R (Homo sapiens, UniProt P25021)
T1 construct: membrane signal peptide of the murine 5HT3A receptor (N); expressed in transfected cells
Assay: Real-time NanoBRET kinetic binding experiments
Procedure: The cell line stably expressing the NLuc-hH2R construct was detached from the cell culture dishes after reaching ~ 80% confluency by treatment with trypsin/EDTA (0.05%/0.2%, for 2 min at 37 °C) and was centrifuged (600×g, 5 min). The cell pellet was then resuspended in Leibovitz’ L-15 medium (L-15), supplemented with 5% FCS + 10 mM HEPES, and 1.0 × 10^5 cells/well were seeded in 70 µL (saturation and competition binding) or 80 µL (kinetic experiments) of assay medium into white 96-well cell-Grade™ plates (Brand GmbH & Co. KG, Wertheim, Germany). The cells were then incubated at 37 °C in a humidified atmosphere (no additional CO2) overnight. For saturation binding experiments, serial dilutions (tenfold concentrated) of the fluorescent ligands (8–10) and famotidine (4, 300-fold excess over the respective concentration of fluorescent ligand, non-specific binding) were prepared in dilution buffer (L-15 + 2% BSA + 10 mM HEPES). 10 µL of the fluorescent ligand dilution and 10 µL of L-15 (total binding) or the dilution of 4 (non-specific binding) were added to the cells. After 60 min incubation time at 27 °C, 10 µL of the substrate furimazine, which was diluted according to manufacturer’s protocol beforehand, were added. After 5 min of equilibration time at 27 °C, the measurement was started. Competition binding experiments were performed as described above using one fixed concentration of fluorescent ligand 8 (c = 50 nM) and varying concentrations of the competitors 1–4, 11, 12, that were added at the same time. Kinetic measurements were performed as follows: 10 µL of L-15 (for total binding) or 4 (300-fold excess, c = 15 µM, non-specific binding) were added to the cells. After addition of the diluted substrate, the plate was placed inside the reader for 5 min to equilibrate. To start association 50 µL of a threefold concentrated solution of the fluorescent ligand 8 (cfinal = 50 nM) were added to the adherent cells and the plate was measured for 60 min. Dissociation experiments were conducted in wells, which have been preincubated with 8 as described above for association experiments. To initiate dissociation, 50 µL of a fourfold concentrated solution of 4 (300-fold excess, cfinal = 15 µM) were added to the cells and the measurement was performed for 4 h. All measurements were performed on a TECAN InfiniteLumi plate reader (TECAN, Grödig, Austria) at 27 °C using the Blue2 NB (460 nm ± 35 nm, bandpass) and the Red NB (> 610 nm, longpass) filter combination with an integration time of 100 ms. For the kinetic experiments, integration time was increased to 500 ms for both channels to reduce noise. BRET ratios were calculated by dividing the acceptor emission (red NB) by the donor luminescence (Blue2 NB).
For kinetic experiments, association experiments were fitted with the “one-phase association” fit yielding kobs, whereas the dissociation experiments were fitted assuming a “one-phase decay” model resulting in koff. The association rate constant kon was calculated using the following equation: kon = (kobs − koff)/c(ligand); c(ligand) = 50 nM. Dissociation half-life t1/2 was calculated applying the following formula: t1/2 = ln(2)/koff.The kinetic equilibrium dissociation constant Kd(kin) was calculated as follows: Kd(kin) = koff/kon. The errors for kon, t1/2 and Kd(kin) were calculated according to the Gaussian law of error propagation. All experimental data were analyzed using Prism 8 software (GraphPad, San Diego, CA, USA).

T1 sequence (P25021 whole entry): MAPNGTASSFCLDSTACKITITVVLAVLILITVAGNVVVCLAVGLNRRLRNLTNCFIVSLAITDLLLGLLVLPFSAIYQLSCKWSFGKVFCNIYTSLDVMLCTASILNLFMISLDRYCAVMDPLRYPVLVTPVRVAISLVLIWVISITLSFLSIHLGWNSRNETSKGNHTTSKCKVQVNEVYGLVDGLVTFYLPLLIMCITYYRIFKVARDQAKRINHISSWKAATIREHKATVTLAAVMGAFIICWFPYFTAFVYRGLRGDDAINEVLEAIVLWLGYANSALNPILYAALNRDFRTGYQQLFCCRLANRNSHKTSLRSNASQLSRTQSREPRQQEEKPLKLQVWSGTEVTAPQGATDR

Time to full association (fully bound to the receptor) (50 nM of 8): approximately 30 min
Amount of ligand displaced within 240 min (300-fold excess famotidine (15 µM), after 60 min preincubation with 50 nM 8): 35–40%
Kd (Kd(kin) = koff/kon): 1.3 ± 0.16 nM
kobs (association of 8, c = 50 nM, mean ± SEM, four experiments): 0.093 ± 0.009 min⁻¹
koff (dissociation started with famotidine 15 µM after 60 min preincubation with 50 nM 8): 3.83e-05 s⁻¹
kon (kon = (kobs − koff)/c(ligand), c = 50 nM, read-out: kon (association rate constant) (converted)): 30000 M⁻¹ s⁻¹
Dissociation half-life t1/2 (t1/2 = ln(2)/koff): 5 h and 5.007 ± 0.3317 h
Structure (SMILES): Cc1cc(/C=C/c2cc3c4c(c2)CCCN4CCC3)cc(C)[n+]1CCCCNc1c(NCCCOc2cccc(CN3CCCCC3)c2)c(=O)c1=O [Compound 8, (E)-1-(4-((3,4-Dioxo-2-((3-(3-(piperidin-1-ylmethyl)phenoxy)propyl)amino)cyclobut-1-en-1-yl)amino)butyl)-2,6-dimethyl-4-(2-(2,3,6,7-tetrahydro-1H,5H-pyrido[3,2,1-ij]quinolin-9-yl)vinyl)pyridin-1-ium]
